Measured values as given in patent US11197908B2, “Peptoids and methods for attenuating inflammatory response” (THE BOARD OF TRUSTEES OF THE UNIVERSITY OF ARKANSAS, priority 2018, dated 2021).
Where a SMILES comes first, the peptide text is derived from it. [ ]: non-standard residue; d: D form. Nphe = O=C(O)CNCc1ccccc1; NPrGly = CCCNCC(=O)O; Nlys = NCCCCNCC(=O)O

Key:
IL-6 = IL-6 in supernatant of THP-1 macrophages co-incubated with peptoid and LPS (ELISA); format: cell-based, human; conditions: peptoid 50 μM with 2 ng/mL LPS, 3 days; vs LPS alone
Experimental: (§1) THP-1 monocytes were differentiated into macrophages through exposure to phorbol 12-myristate 13-acetate (PMA) for three days prior to experimentation 10. […] Upon differentiation, these cells were then incubated (3 days) with media containing JPT1a (50, 10, or 2 μM) alone or JPT1a (50, 10, or 2 μM) in the presence of low-dose (2 ng/mL) lipopolysaccharide (LPS) as a chronic pro-inflammatory stimulus 11. Treatment with 2 ng/mL LPS alone served as a positive control, while treatment with an equivalent volume of buffer diluted into media served as the vehicle. Cellular supernatant was harvested on day 3 12; these samples were immediately centrifuged at 1200 rpm for 10 min at 25° C. to remove any cells or debris. The top 80% of this volume was subsequently removed and stored at −80° C. for later assessment of cytokines via ELISA. Cells were fixed and stained for RAGE, phalloidin (cytoplasmic marker), and DAPI (nuclear marker) 13. […] All multi-channel images were converted to TIFF file format via ImageJ64 software for quantitative image analysis using a custom subroutine written in Matlab™ software to obtain the average RAGE expression per volume of cells, and the data generated was assessed for statistical significance using GraphPad Prism 7.0 software 15.
(§2) As shown in FIGS. 2B-2D, THP-1 macrophages were treated with JPT1a alone (white) or in the presence of a chronic low-dose (2 ng/mL) of LPS (grey), for 3 days prior to supernatant harvest and storage. Examination of the supernatant via ELISA determined the concentrations of (FIG. 2B) IL-1β, (FIG. 2C) IL-6, and (FIG. 2D) IL-8. […]
as §2, with “5B-5D,” for “2B-2D,”, “JPT1” for “JPT1a”, “5B)” for “2B)”, “5C)” for “2C)”, “5D)” for “2D)”

IL-1β = IL-1β in supernatant of THP-1 macrophages co-incubated with peptoid and LPS (ELISA); format: cell-based, human; conditions: peptoid 50 μM with 2 ng/mL LPS, 3 days; vs LPS alone
Experimental: as §1, with “debris.” for “debris. The top 80% of this volume was subsequently removed and stored at −80° C. for later assessment of cytokines via ELISA. Cells were fixed and stained for RAGE, phalloidin (cytoplasmic marker), and DAPI (nuclear marker) 13.”
as §2

RAGE [1] = target: RAGE (Homo sapiens, UniProt Q15109); experiment: RAGE binding to peptoid-coated 96-well plates, Scatchard plot; conditions: plates coated with 500 nM peptoid; JPT1a n=3 average, JPT1 n=1
Experimental: As shown in FIGS. 7A-7D, 96-well plates coated with 500 nM JPT1a were treated with concentrations of RAGE (FIG. 7A) or E-cadherin (FIG. 7B) ranging from 1 to 500 nM. Values are reported as the average concentration of bound protein determined from all experiments. Error bars indicate SEM, n=2-5. […] In FIG. 7D, 96-well plates coated with 500 nM JPT1 were treated with concentrations of RAGE ranging from 1 to 350 nM.

RAGE [2] = experiment: RAGE upregulation in THP-1 macrophages co-incubated with peptoid and low-dose LPS (confocal imaging); format: cell-based, human; conditions: 3 days
Experimental: THP-1 monocytes were differentiated into macrophages through exposure to phorbol 12-myristate 13-acetate (PMA) for three days prior to experimentation 10. […] Upon differentiation, these cells were then incubated (3 days) with media containing JPT1a (50, 10, or 2 μM) alone or JPT1a (50, 10, or 2 μM) in the presence of low-dose (2 ng/mL) lipopolysaccharide (LPS) as a chronic pro-inflammatory stimulus 11. Treatment with 2 ng/mL LPS alone served as a positive control, while treatment with an equivalent volume of buffer diluted into media served as the vehicle. Cellular supernatant was harvested on day 3 12; these samples were immediately centrifuged at 1200 rpm for 10 min at 25° C. to remove any cells or debris. The top 80% of this volume was subsequently removed and stored at −80° C. for later assessment of cytokines via ELISA. Cells were fixed and stained for RAGE, phalloidin (cytoplasmic marker), and DAPI (nuclear marker) 13. Each channel was imaged with a Zeiss LSM 510 META Confocal Scanning Laser Microscope using a plan-neofluar 40×/1.3 oil DIC immersion objective; three of these multi-channel images were obtained from each slide in each experiment 14. All multi-channel images were converted to TIFF file format via ImageJ64 software for quantitative image analysis using a custom subroutine written in Matlab™ software to obtain the average RAGE expression per volume of cells, and the data generated was assessed for statistical significance using GraphPad Prism 7.0 software 15.
(§3) Images acquired via confocal microscopy were analyzed via custom MATLAB™ subroutine to determine the average quantity of RAGE present within a given volume of cells. Results within each experiment are normalized to the positive control (2 ng/mL LPS alone), indicated by the dashed line at 1. Significance relative to positive control is indicated as ** p<0.01. Error bars indicate SEM, n=4.
as §3, with “1.0.” for “1. Significance relative to positive control is indicated as ** p<0.01.”, “n=2.” for “n=4.”

Chain of RAGE (Homo sapiens, UniProt Q15109) (Q15109 23-404): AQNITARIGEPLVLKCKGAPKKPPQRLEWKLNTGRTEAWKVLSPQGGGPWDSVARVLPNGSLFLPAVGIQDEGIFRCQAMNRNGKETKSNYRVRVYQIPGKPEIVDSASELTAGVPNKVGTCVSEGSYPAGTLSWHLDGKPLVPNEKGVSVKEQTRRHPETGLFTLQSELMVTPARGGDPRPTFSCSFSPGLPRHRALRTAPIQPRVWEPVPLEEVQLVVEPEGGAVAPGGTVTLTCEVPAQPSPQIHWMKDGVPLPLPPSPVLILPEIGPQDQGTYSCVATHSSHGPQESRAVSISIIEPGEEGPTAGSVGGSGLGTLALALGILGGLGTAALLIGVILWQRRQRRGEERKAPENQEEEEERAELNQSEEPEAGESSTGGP

Kd (RAGE [1]): 78.8 nM
SMILES: CCCN(CC(=O)N(CCC)CC(=O)N(CC(=O)N(CC(=O)N(CCC)CC(=O)N(CC(=O)N(CC(N)=O)Cc1ccccc1)Cc1ccccc1)Cc1ccccc1)Cc1ccccc1)C(=O)CNCCCCN [JPT1] (H-[Nlys][NPrGly][NPrGly][Nphe][Nphe][NPrGly][Nphe][Nphe]-NH2)
LPS-induced production of IL-6 (IL-6): significantly attenuates
LPS-induced production of IL-1β (IL-1β): significantly attenuates
upregulation in RAGE expression in the presence of LPS (RAGE [2]; peptoid 50, 10 or 2 μM with 2 ng/mL LPS, normalized to LPS alone): reduced in a dose-dependent manner
expression of RAGE, peptoid alone (RAGE [2]; peptoid alone (no LPS), relative to the control): does not provoke response or upregulation
